Laboratory results taken from US12187723B2 (BRISTOL-MYERS SQUIBB COMPANY, priority 2019, dated 2025).
pIC50: −log10 of the molar value.

molecular target: T1, human TLR7 (Homo sapiens, UniProt Q9NYK1); experiment: TLR7 inhibition reporter assay (HEK-Blue SEAP); assay type: cell-based; details: HEK-Blue cells overexpressing human TLR7, gardiquimod 7.5 μM, 22 hour incubation
T1 construct: host or cells: HEK-Blue cells
T1 sequence (Q9NYK1 27-1049): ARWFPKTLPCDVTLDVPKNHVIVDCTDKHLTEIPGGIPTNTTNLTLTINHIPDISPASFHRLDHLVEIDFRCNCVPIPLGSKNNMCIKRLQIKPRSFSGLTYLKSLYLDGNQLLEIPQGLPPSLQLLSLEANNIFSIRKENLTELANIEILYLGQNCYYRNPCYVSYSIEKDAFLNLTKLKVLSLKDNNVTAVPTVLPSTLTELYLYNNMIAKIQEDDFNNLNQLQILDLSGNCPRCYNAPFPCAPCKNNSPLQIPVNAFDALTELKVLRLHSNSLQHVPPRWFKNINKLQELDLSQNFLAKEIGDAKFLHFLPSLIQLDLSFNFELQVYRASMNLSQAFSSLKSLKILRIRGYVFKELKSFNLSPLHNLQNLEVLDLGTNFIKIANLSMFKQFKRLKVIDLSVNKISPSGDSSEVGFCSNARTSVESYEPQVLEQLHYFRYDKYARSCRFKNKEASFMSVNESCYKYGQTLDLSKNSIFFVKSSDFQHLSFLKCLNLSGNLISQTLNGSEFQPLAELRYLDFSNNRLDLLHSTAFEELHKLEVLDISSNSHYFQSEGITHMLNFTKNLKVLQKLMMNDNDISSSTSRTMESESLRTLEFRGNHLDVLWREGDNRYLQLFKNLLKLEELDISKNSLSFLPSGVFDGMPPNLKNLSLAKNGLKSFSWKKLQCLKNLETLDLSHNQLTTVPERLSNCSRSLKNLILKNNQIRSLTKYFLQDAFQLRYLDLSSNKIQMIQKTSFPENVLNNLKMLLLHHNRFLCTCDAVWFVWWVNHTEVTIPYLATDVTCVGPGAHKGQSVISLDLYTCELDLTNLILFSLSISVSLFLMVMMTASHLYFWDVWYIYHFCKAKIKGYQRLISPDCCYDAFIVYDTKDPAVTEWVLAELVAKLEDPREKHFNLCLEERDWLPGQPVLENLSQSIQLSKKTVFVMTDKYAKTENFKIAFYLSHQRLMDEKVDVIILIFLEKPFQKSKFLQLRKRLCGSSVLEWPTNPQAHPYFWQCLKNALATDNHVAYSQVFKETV
Procedure, shortened: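 In this cell reporter format, test compounds at 0.05 nM-50 μM final incubate 22 h with seeded cells (TLR7 15000, TLR8 20,000 per well). SEAP read-out by HEK-Blue Detection medium yields % inhibition relative to agonist/DMSO and known-inhibitor wells.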

SMILES	pIC50
Cc1cc2c(cc1-c1cc(C)c3ncnn3c1)[nH]c(=O)n2[C@H]1CC[C@@H](NC(C)C)CC1 [Example 22, 1-((1s,4s)-4-(isopropylamino)cyclohexyl)-6-methyl-5-(8-methyl-[1,2,4]triazolo[1,5-a]pyridin-6-yl)-1,3-dihydro-2H-benzo[d]imidazol-2-one]	8.32
Cc1c(-c2cc3[nH]c(=O)n(C4CCC(N5CCCC(F)C5)CC4)c3cc2C(C)C)cn2ncnc2c1C (stereo not shown) [Example 274, 5-(7,8-dimethyl-[1,2,4]triazolo[1,5-a]pyridin-6-yl)-1-(4-(3-fluoropiperidin-1-yl)cyclohexyl)-6-isopropyl-1,3-dihydro-2H-benzo[d]imidazol-2-one]	8.17
COc1cc(-c2ccc3c(c2)[nH]c(=O)n3C2CCNCC2)cn2ncnc12 [1 EI, 5-(8-methoxy-[1,2,4]triazolo[1,5-a]pyridin-6-yl)-1-(piperidin-4-yl)-1,3-dihydro-2H-benzo[d]imidazol-2-one]	< 5.51
COc1cc(-c2cc3[nH]c(=O)n(C4CCC(N5C[C@@H](F)[C@@H](F)C5)CC4)c3cc2C(C)C)cn2ncnc12 (single isomer, unassigned) [Example 292]	8.66
COc1cc(-c2cc3[nH]c(=O)n(C4CCC(N5CC6(COC6)C5)CC4)c3cc2C(C)C)cn2ncnc12 (stereo not shown) [Example 254, 1-(4-(2-oxa-6-azaspiro[3.3]heptan-6-yl)cyclohexyl)-6-isopropyl-5-(8-methoxy-[1,2,4]triazolo[1,5-a]pyridin-6-yl)-1,3-dihydro-2H-benzo[d]imidazol-2-one]	8.17
CCN[C@H]1CC[C@H](n2c(=O)[nH]c3cc(-c4cc(C)c5ncnn5c4)c(C)cc32)CC1 [Example 24, 1-((1r,4s)-4-(ethylamino)cyclohexyl)-6-methyl-5-(8-methyl-[1,2,4]triazolo[1,5-a]pyridin-6-yl)-1,3-dihydro-2H-benzo[d]imidazol-2-one]	7.91
COc1c(C)c(-c2cc3[nH]c(=O)n(C4CCC(N5CC6(COC6)C5)CC4)c3cc2C(C)C)cn2ncnc12 (single isomer, unassigned) [Example 270, 1-(4-(2-oxa-6-azaspiro[3.3]heptan-6-yl)cyclohexyl)-6-isopropyl-5-(8-methoxy-7-methyl-[1,2,4]triazolo[1,5-a]pyridin-6-yl)-1,3-dihydro-2H-benzo[d]imidazol-2-one]	7.71
COc1cc(-c2cc3[nH]c(=O)n(C4CCC(N5CC(F)(F)C5)CC4)c3cc2C(C)C)cn2ncnc12 (single isomer, unassigned) [Example 296]	7.50
COc1cc(-c2cc3[nH]c(=O)n(C4CCC(N5CCSCC5)CC4)c3cc2C(C)C)cn2ncnc12 (stereo not shown) [Example 250, 6-isopropyl-5-(8-methoxy-[1,2,4]triazolo[1,5-a]pyridin-6-yl)-1-(4-thiomorpholinocyclohexyl)-1,3-dihydro-2H-benzo[d]imidazol-2-one]	8.70
COc1cc(-c2cc3[nH]c(=O)n(C4CCC(N5C6CCC5COC6)CC4)c3cc2C(C)C)cn2ncnc12 (single isomer, unassigned) [Example 253, 1-(4-(3-oxa-8-azabicyclo[3.2.1]octan-8-yl)cyclohexyl)-6-isopropyl-5-(8-methoxy-[1,2,4]triazolo[1,5-a]pyridin-6-yl)-1,3-dihydro-2H-benzo[d]imidazol-2-one]	8.32
Cc1c(-c2cc3[nH]c(=O)n(C4CCC(N5CC6(COC6)C5)CC4)c3cc2C(C)C)cn2ncnc2c1C (single isomer, unassigned) [Example 281, 1-(4-(2-oxa-6-azaspiro[3.3]heptan-6-yl)cyclohexyl)-5-(7,8-dimethyl-[1,2,4]triazolo[1,5-a]pyridin-6-yl)-6-isopropyl-1,3-dihydro-2H-benzo[d]imidazol-2-one]	7.91

The remaining compounds from weak to strong by pIC50, led by results:

pIC50	SMILES
6.98	Cc1cc2c(cc1-c1cc(C)c3ncnn3c1)[nH]c(=O)n2C1CCCNC1 (stereo not shown) [1 EC, 6-methyl-5-(8-methyl-[1,2,4]triazolo[1,5-a]pyridin-6-yl)-1-(piperidin-3-yl)-1,3-dihydro-2H-benzo[d]imidazol-2-one]
7.37	COc1cc(-c2cc3[nH]c(=O)n([C@@H]4CCCNC4)c3cc2C)cn2ncnc12 [1 EH, (R)-5-(8-methoxy-[1,2,4]triazolo[1,5-a]pyridin-6-yl)-6-methyl-1-(piperidin-3-yl)-1,3-dihydro-2H-benzo[d]imidazol-2-one]
7.38	COc1c(C)c(-c2cc3[nH]c(=O)n(C4CCC(NCC5(S(C)(=O)=O)CC5)CC4)c3cc2C(C)C)cn2ncnc12 (single isomer, unassigned) [Example 260]
7.67	Cc1cc2c(cc1-c1cc(C)c3ncnn3c1)[nH]c(=O)n2[C@H]1CC[C@@H](N(C)C)CC1 [Example 19, 1-((1s,4s)-4-(dimethylamino)cyclohexyl)-6-methyl-5-(8-methyl-[1,2,4]triazolo[1,5-a]pyridin-6-yl)-1,3-dihydro-2H-benzo[d]imidazol-2-one]
7.80	COc1c(C)c(-c2cc3[nH]c(=O)n(C4CCC(N5CCC6(CC5)COC6)CC4)c3cc2C(C)C)cn2ncnc12 (single isomer, unassigned) [Example 268, 1-(4-(2-oxa-7-azaspiro[3.5]nonan-7-yl)cyclohexyl)-6-isopropyl-5-(8-methoxy-7-methyl-[1,2,4]triazolo[1,5-a]pyridin-6-yl)-1,3-dihydro-2H-benzo[d]imidazol-2-one]
7.87	COc1c(C)c(-c2cc3[nH]c(=O)n(C4CCC(N5CC(OC)C5)CC4)c3cc2C(C)C)cn2ncnc12 (stereo not shown) [Example 266, 6-isopropyl-5-(8-methoxy-7-methyl-[1,2,4]triazolo[1,5-a]pyridin-6-yl)-1-(4-(3-methoxyazetidin-1-yl)cyclohexyl)-1,3-dihydro-2H-benzo[d]imidazol-2-one]
7.88	CCN[C@H]1CC[C@@H](n2c(=O)[nH]c3cc(-c4cc(C)c5ncnn5c4)c(C)cc32)CC1 [Example 21, 1-((1s,4s)-4-(ethylamino)cyclohexyl)-6-methyl-5-(8-methyl-[1,2,4]triazolo[1,5-a]pyridin-6-yl)-1,3-dihydro-2H-benzo[d]imidazol-2-one]
8.05	CCN(CC)[C@H]1CC[C@@H](n2c(=O)[nH]c3cc(-c4cc(C)c5ncnn5c4)c(C)cc32)CC1 [Example 20, 1-((1s,4s)-4-(diethylamino)cyclohexyl)-6-methyl-5-(8-methyl-[1,2,4]triazolo[1,5-a]pyridin-6-yl)-1,3-dihydro-2H-benzo[d]imidazol-2-one]
8.14	COc1c(C)c(-c2cc3[nH]c(=O)n(C4CCC(N5CC(OC)C5)CC4)c3cc2C(C)C)cn2ncnc12 (stereo not shown) [Example 265, 6-isopropyl-5-(8-methoxy-7-methyl-[1,2,4]triazolo[1,5-a]pyridin-6-yl)-1-(4-(3-methoxyazetidin-1-yl)cyclohexyl)-1,3-dihydro-2H-benzo[d]imidazol-2-one]
8.22	COc1cc(-c2cc3[nH]c(=O)n(C4CCC(N5CC6(C5)CS(=O)(=O)C6)CC4)c3cc2C(C)C)cn2ncnc12 (single isomer, unassigned) [Example 245, 1-(4-(2,2-dioxido-2-thia-6-azaspiro[3.3]heptan-6-yl)cyclohexyl)-6-isopropyl-5-(8-methoxy-[1,2,4]triazolo[1,5-a]pyridin-6-yl)-1,3-dihydro-2H-benzo[d]imidazol-2-one]
8.27	Cc1c(-c2cc3[nH]c(=O)n(C4CCC(N5CCCOCC5)CC4)c3cc2C(C)C)cn2ncnc2c1C (stereo not shown) [Example 272, 1-(4-(1,4-oxazepan-4-yl)cyclohexyl)-5-(7,8-dimethyl-[1,2,4]triazolo[1,5-a]pyridin-6-yl)-6-isopropyl-1,3-dihydro-2H-benzo[d]imidazol-2-one]
8.64	COc1c(C)c(-c2cc3[nH]c(=O)n(C4CCC(N5CCCOCC5)CC4)c3cc2C(C)C)cn2ncnc12 (single isomer, unassigned) [Example 262, 1-(4-(1,4-oxazepan-4-yl)cyclohexyl)-6-isopropyl-5-(8-methoxy-7-methyl-[1,2,4]triazolo[1,5-a]pyridin-6-yl)-1,3-dihydro-2H-benzo[d]imidazol-2-one]
8.77	COC[C@@H]1CCN(C2CCC(n3c(=O)[nH]c4cc(-c5cc(OC)c6ncnn6c5)c(C(C)C)cc43)CC2)C1 (single isomer, unassigned) [Example 291]
8.86	COC[C@@H]1CCN(C2CCC(n3c(=O)[nH]c4cc(-c5cc(OC)c6ncnn6c5)c(C(C)C)cc43)CC2)C1 (single isomer, unassigned) [Example 290]
